Results on 24 compounds are retold here after ChEMBL document CHEMBL3877251, “Synthesis and biological evaluation of a series of N-alkylated imidazole alkanoic acids as mGAT3 selective GABA uptake inhibitors” (Eur J Med Chem, 2016).

The IC50 is the midpoint of a concentration-inhibition curve. By inhibition is commonly meant the relative decrease from the control value, in per cent.

Common to all, as to format: cell-based
Test [1] has as its target Sodium- and chloride-dependent GABA transporter 1 (Mus musculus, UniProt P31648). The test is described as follows: Inhibition of mouse GAT1 expressed in HEK293 cells assessed as decrease in [3H]GABA uptake preincubated for 25 mins followed by [3H]GABA addition measured after 4 mins by liquid scintillation counter method.
Another test has as its target T1, GABA transporter 3 (Mus musculus, UniProt P31649).
T1 sequence (P31649 whole entry): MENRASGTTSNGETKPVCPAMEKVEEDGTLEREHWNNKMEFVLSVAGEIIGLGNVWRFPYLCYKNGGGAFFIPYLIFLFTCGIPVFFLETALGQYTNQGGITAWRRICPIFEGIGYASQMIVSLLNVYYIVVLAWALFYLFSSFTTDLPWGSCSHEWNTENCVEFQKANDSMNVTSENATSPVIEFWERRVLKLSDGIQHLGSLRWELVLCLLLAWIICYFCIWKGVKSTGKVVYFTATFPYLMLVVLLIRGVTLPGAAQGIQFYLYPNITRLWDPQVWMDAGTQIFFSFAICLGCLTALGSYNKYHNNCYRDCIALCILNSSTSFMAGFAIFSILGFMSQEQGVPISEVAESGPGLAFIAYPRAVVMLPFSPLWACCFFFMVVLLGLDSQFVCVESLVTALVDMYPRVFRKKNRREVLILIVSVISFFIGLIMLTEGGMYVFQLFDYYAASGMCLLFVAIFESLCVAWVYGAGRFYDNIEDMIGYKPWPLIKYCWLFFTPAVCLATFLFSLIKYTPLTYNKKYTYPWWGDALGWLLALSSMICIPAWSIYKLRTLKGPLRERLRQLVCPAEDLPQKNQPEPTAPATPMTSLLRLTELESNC
The test is described as follows: Inhibition of mouse GAT3 expressed in HEK293 cells assessed as decrease in [3H]GABA uptake preincubated for 25 mins followed by [3H]GABA addition measured after 4 mins by liquid scintillation counter method.

The target of test [2] is T2, GABA transporter 2 (Mus musculus) (UniProt P31651).
T2 sequence (whole entry): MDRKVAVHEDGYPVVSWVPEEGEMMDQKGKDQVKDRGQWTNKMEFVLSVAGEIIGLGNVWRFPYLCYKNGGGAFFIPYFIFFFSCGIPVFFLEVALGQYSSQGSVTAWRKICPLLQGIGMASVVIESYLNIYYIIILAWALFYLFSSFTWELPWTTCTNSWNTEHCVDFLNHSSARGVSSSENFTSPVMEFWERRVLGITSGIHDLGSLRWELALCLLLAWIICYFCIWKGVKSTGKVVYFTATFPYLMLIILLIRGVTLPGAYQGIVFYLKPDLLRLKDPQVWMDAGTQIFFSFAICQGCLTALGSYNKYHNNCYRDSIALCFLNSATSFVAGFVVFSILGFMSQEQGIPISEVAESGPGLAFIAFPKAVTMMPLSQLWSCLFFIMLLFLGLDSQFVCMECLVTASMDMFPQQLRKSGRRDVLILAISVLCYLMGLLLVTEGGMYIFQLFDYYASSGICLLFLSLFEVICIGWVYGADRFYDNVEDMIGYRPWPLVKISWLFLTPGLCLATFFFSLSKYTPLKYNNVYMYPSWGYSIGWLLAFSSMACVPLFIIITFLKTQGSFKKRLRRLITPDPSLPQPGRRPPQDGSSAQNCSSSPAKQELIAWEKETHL
The test is described as follows: Inhibition of mouse GAT2 expressed in HEK293 cells assessed as decrease in [3H]GABA uptake at 100 uM preincubated for 25 mins followed by [3H]GABA addition measured after 10 mins by liquid scintillation counter method.

Test [3] has as its target T3, GABA transporter 4 (Mus musculus) (UniProt P31650).
T3 sequence (whole entry): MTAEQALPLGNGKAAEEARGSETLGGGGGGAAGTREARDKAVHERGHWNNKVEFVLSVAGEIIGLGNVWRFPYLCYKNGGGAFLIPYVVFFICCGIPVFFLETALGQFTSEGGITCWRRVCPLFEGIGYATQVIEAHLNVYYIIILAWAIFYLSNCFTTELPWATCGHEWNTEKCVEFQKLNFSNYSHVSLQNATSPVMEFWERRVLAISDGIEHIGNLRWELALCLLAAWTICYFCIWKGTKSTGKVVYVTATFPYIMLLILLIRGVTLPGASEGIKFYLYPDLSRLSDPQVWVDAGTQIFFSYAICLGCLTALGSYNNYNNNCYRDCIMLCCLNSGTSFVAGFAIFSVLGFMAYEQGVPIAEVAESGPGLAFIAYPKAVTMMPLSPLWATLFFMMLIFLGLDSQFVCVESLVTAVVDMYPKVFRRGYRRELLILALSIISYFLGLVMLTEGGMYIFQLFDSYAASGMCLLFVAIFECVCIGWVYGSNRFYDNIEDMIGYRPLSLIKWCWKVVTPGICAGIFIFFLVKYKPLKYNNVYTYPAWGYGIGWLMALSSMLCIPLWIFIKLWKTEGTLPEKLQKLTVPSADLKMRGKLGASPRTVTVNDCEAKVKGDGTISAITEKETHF
The test is described as follows: Inhibition of mouse GAT4 expressed in HEK293 cells assessed as decrease in [3H]GABA uptake at 100 uM preincubated for 25 mins followed by [3H]GABA addition measured after 4 mins by liquid scintillation counter method.

The target of a further test is T4, GABA transporter 2 (Mus musculus, UniProt P31651).
T4 sequence (P31651 whole entry): T2 sequence (whole entry)
The test is described as follows: Inhibition of mouse GAT2 expressed in HEK293 cells assessed as decrease in [3H]GABA uptake preincubated for 25 mins followed by [3H]GABA addition measured after 10 mins by liquid scintillation counter method.

In the next test the target is T5, GABA transporter 4 (Mus musculus, UniProt P31650).
T5 sequence (P31650 whole entry): T3 sequence (whole entry)
The test is described as follows: Inhibition of mouse GAT4 expressed in HEK293 cells assessed as decrease in [3H]GABA uptake preincubated for 25 mins followed by [3H]GABA addition measured after 4 mins by liquid scintillation counter method.

Test [4] deals with Sodium- and chloride-dependent GABA transporter 1 (Mus musculus) (UniProt P31648). The test is described as follows: Inhibition of mouse GAT1 expressed in HEK293 cells assessed as decrease in [3H]GABA uptake at 100 uM preincubated for 25 mins followed by [3H]GABA addition measured after 4 mins by liquid scintillation counter method.
For test [5], the target named is T6, GABA transporter 3 (Mus musculus) (UniProt P31649).
T6 sequence (whole entry): T1 sequence (P31649 whole entry)
The test is described as follows: Inhibition of mouse GAT3 expressed in HEK293 cells assessed as decrease in [3H]GABA uptake at 100 uM preincubated for 25 mins followed by [3H]GABA addition measured after 4 mins by liquid scintillation counter method.

As to `COc1ccc(C2(OCCOCCn3ccnc3CCC(=O)O)c3ccccc3-c3ccccc32)cc1`, the IC50 is 37.2 µM in test [1] and 28.2 µM on GABA transporter 3. Further, the inhibition in test [2] came out at 48.3%; in test [3], 50.7%.
Regarding `COc1ccc(C2(OCCCCCn3ccnc3CCC(=O)O)c3ccccc3-c3ccccc32)cc1`, the IC50 is 11.7 µM in test [1], 12.6 µM on GABA transporter 2, 23.4 µM on GABA transporter 3 and 29.5 µM on GABA transporter 4.
With `COc1ccc(C2(OCCCCn3ccnc3CCC(=O)O)c3ccccc3-c3ccccc32)cc1`, the IC50 in test [1] was 141 µM; on GABA transporter 2 it was 25.1 µM; at GABA transporter 3 it was 87.1 µM; on GABA transporter 4, 174 µM.
Turning to `COc1ccc(C2(OCCCn3cncc3CC(=O)O)c3ccccc3-c3ccccc32)cc1`, the IC50 on GABA transporter 3 was 81.3 µM. Moreover, the inhibition is 50.1% in test [4], 70.1% in test [2] and 55.6% in test [3].
Take `COc1ccc(C2(OCCCn3cnc(CC(=O)O)c3)c3ccccc3-c3ccccc32)cc1`: at GABA transporter 2, the IC50 is 97.7 µM. Further, the inhibition in test [4] amounted to 84.2%; in test [5], 51.4%; in test [3] it was 61.4%.
As to `COc1ccc(C2(OCCn3ccnc3CCC(=O)O)c3ccccc3-c3ccccc32)cc1`, the inhibition in test [4] was found to be 64.8%; in test [2], 53%; in test [5] it was 43.2%; in test [3], 58.3%.
For the compound `COc1ccc(C2(OCCCCCn3ccnc3/C=C/C(=O)O)c3ccccc3-c3ccccc32)cc1`, the 50% inhibitory concentration (IC50) was 12.6 µM in test [1], 28.8 µM at GABA transporter 2 and 10.2 µM at GABA transporter 4.
In the case of `COc1ccc(C2(OCCCCCn3cncc3CC(=O)O)c3ccccc3-c3ccccc32)cc1`, the half-maximal inhibitory concentration (IC50) in test [1] is 79.4 µM. For the same compound, the inhibition in test [2] was 38.5%; in test [5], 68%; in test [3] it was 77.4%.
As for `COc1ccc(C2(/C=C/Cn3cnc(CC(=O)O)c3)c3ccccc3-c3ccccc32)cc1`, the values for the IC50 on GABA transporter 3 and at GABA transporter 4 were 47.9 µM and 39.8 µM, respectively. For the same compound, the inhibition in test [4] is 62.4%; in test [2], 24.2%.
`Cc1ccsc1C(=CCCN1CCC[C@@H](C(=O)O)C1)c1sccc1C`: the inhibition in test [2] worked out at 52%; in test [5], 64%; in test [3], 73%.
`O=C(O)CCc1nccn1CCC=C(c1ccccc1)c1ccccc1`: the results for the 50% inhibitory concentration (IC50) (in test [1]; at GABA transporter 2) were 74.1 µM and 58.9 µM, respectively. Also, the results for the inhibition in test [5] and in test [3] were 48.1% and 53.7%, respectively.
In the case of `O=C(O)CCc1ncc[nH]1`, the values for the IC50 on GABA transporter 2, on GABA transporter 3 and on GABA transporter 4 were 525 µM, 28.8 µM and 309 µM, respectively. Also, the inhibition in test [4] was 62.8%.
Turning to `COc1ccc(C2(OC/C=C/Cn3ccnc3CCC(=O)O)c3ccccc3-c3ccccc32)cc1`, the IC50 at GABA transporter 2 was 32.4 µM. The inhibition in test [4] was found to be 55.8%; in test [5], 43.9%; in test [3], 61.4%.
In the case of `COc1ccc(C2(/C=C/Cn3cncc3CC(=O)O)c3ccccc3-c3ccccc32)cc1`, the IC50 in test [1] is 126 µM; on GABA transporter 2 it was 166 µM; on GABA transporter 3 it was 79.4 µM; at GABA transporter 4, 110 µM.
In the case of `COc1ccc(C2(OC/C=C\Cn3ccnc3CCC(=O)O)c3ccccc3-c3ccccc32)cc1`, the IC50 was 70.8 µM in test [1], 37.2 µM at GABA transporter 2, 15.8 µM on GABA transporter 3 and 13.2 µM at GABA transporter 4.
As to `COc1ccc(C2(OCCCCn3cncc3CC(=O)O)c3ccccc3-c3ccccc32)cc1`, the IC50 at GABA transporter 2 is 22.9 µM. Moreover, the inhibition in test [4] amounted to 70.8%; in test [5], 41.7%; in test [3], 59%.
In the case of `COc1ccc(C2(/C=C/Cn3ccnc3CCC(=O)O)c3ccccc3-c3ccccc32)cc1`, the IC50 at GABA transporter 2 was 25.1 µM; on GABA transporter 3, 35.5 µM; on GABA transporter 4, 43.7 µM. In test [4], the inhibition is 48.5%.
`COc1ccc(C2(/C=C/COCCn3ccnc3CCC(=O)O)c3ccccc3-c3ccccc32)cc1`: the IC50 in test [1] is 26.3 µM; on GABA transporter 2, 30.9 µM; at GABA transporter 3 it was 24.5 µM; on GABA transporter 4, 21.9 µM.
`COc1ccc(C2(OCCn3cncc3CC(=O)O)c3ccccc3-c3ccccc32)cc1`: the inhibition came to 67.2% in test [4], 57.9% in test [2], 50.8% in test [5] and 46% in test [3].
Regarding `COc1ccc(C2(OCCCCn3cnc(CC(=O)O)c3)c3ccccc3-c3ccccc32)cc1`, the IC50 on GABA transporter 2 was 24 µM; at GABA transporter 3, 39.8 µM; at GABA transporter 4 it was 49 µM. Also, in test [4], the inhibition came to 64.9%.
Take `COc1ccc(C2(OCCCn3ccnc3CCC(=O)O)c3ccccc3-c3ccccc32)cc1`: in test [1], the IC50 was 100 µM. Further, the inhibition in test [2] stood at 31.2%; in test [5], 48.6%; in test [3] it was 55.4%.
On to `COc1ccc(C2(OCCCCCn3cnc(CC(=O)O)c3)c3ccccc3-c3ccccc32)cc1`, for which the 50% inhibitory concentration (IC50) was 61.7 µM on GABA transporter 2, 97.7 µM at GABA transporter 3 and 105 µM on GABA transporter 4. Also, the inhibition in test [4] was 72.7%.
`COc1ccc(C2(OCCn3cnc(CC(=O)O)c3)c3ccccc3-c3ccccc32)cc1`: the inhibition is 56.6% in test [4], 44% in test [2], 46.7% in test [5] and 85.4% in test [3].
For `O=C(O)/C=C/c1ncc[nH]1`, the inhibition in test [4] was determined as 73.7%; in test [2], 77.3%; in test [3] it was 47.2%.
